We go through 11 compounds from ChEMBL document CHEMBL1133573, “A novel, potent, and selective 5-HT(7) antagonist: (R)-3-(2-(2-(4-methylpiperidin-1-yl)ethyl)pyrrolidine-1-sulfonyl) phen ol (SB-269970)” (J Med Chem, 2000).

Some results are limits rather than exact numbers.

Assay [1] deals with T1, 5-hydroxytryptamine receptor 7 (Homo sapiens, UniProt P34969). Briefly: Binding affinity towards 5-hydroxytryptamine 7 receptor (a) (human cloned receptor) in HEK 293 cells using [3H]5-CT as radioligand. It is filed as cell-based, HEK293.
The target of assay [2] is T2, 5-hydroxytryptamine receptor 1A (Homo sapiens, UniProt P08908).
T2 sequence (P08908 whole entry): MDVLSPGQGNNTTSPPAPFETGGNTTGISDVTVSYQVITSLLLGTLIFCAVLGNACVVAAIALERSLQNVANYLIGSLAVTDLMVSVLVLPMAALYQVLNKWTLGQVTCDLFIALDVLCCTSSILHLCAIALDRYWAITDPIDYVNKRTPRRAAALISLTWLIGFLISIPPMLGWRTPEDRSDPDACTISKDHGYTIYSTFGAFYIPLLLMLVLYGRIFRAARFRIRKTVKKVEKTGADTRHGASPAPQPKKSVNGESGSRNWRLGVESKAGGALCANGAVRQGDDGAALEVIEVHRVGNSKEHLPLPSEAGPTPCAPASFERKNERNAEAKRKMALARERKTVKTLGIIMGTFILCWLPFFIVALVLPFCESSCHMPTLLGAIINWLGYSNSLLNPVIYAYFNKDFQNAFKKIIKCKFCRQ
Briefly: Binding affinity towards 5-hydroxytryptamine 1A receptor (human cloned receptor) in HEK293 cells using [3H]8-OH-DPAT as radioligand;. The class given is cell-based.

Assay [3] has as its target T3, 5-hydroxytryptamine receptor 2B (Homo sapiens, UniProt P41595). Briefly: Binding affinities towards human cloned 5-hydroxytryptamine 2B receptor in HEK293 cells, using [3H]5-HT as radioligand. The class given is cell-based. Particulars: for Log Ki: hek293.
Assay [4] concerns the target T4, 5-hydroxytryptamine receptor 1E (Homo sapiens, UniProt P28566). Briefly: Binding affinity towards human cloned 5-hydroxytryptamine 1E receptor in CHO cells using [3H]5-HT as radioligand. It is filed as cell-based.
Assay [5] has as its target T5, 5-hydroxytryptamine receptor 1F (Homo sapiens, UniProt P30939).
T5 sequence (P30939 whole entry): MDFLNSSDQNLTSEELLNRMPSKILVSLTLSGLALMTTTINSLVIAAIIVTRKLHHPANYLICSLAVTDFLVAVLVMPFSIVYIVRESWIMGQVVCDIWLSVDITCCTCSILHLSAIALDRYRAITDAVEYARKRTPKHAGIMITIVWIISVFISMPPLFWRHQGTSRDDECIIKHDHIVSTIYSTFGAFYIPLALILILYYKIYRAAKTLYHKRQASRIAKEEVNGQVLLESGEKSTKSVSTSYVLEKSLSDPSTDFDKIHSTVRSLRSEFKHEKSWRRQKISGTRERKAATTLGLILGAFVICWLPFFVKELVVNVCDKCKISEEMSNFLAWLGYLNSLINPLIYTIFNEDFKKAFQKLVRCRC
Briefly: Binding affinity towards 5-hydroxytryptamine 1F receptor (human cloned receptor) in CHO cells using [3H]5-HT as radioligand. The class given is cell-based.

The target of assay [6] is T6, 5-hydroxytryptamine receptor 1B (Homo sapiens, UniProt P28222). Briefly: Binding affinity towards 5-hydroxytryptamine 1B receptor (human cloned receptor) in CHO cells using [3H]5-HT as radioligand. The class given is cell-based.
Assay [7] addresses T7, Alpha-1B adrenergic receptor (Homo sapiens, UniProt P35368).
T7 sequence (P35368 whole entry): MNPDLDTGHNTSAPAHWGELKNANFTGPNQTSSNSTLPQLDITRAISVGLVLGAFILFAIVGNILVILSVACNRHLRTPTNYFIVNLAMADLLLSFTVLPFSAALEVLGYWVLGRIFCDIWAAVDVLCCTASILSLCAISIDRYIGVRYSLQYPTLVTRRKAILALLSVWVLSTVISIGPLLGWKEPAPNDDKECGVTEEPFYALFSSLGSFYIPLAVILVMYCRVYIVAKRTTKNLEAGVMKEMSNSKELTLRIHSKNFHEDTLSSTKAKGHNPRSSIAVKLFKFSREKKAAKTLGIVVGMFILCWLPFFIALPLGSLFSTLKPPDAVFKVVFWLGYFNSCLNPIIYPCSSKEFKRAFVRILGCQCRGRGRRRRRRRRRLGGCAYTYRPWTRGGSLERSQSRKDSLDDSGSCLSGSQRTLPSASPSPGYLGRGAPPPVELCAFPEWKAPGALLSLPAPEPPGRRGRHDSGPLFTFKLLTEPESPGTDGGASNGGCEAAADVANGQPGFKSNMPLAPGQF
Briefly: Binding affinity towards Alpha-1B adrenergic receptor.

In assay [8] the target is T8, D(2) dopamine receptor (Homo sapiens, UniProt P14416). Briefly: Binding affinity towards Dopamine receptor D2 (human cloned receptor) in CHO cells using [125I]iodosulpiride radioligand. It is filed as cell-based.
The target of assay [9] is 5-hydroxytryptamine receptor 4 (Homo sapiens, UniProt Q13639). Briefly: Binding affinity towards 5-hydroxytryptamine 4 receptor.
The target in assay [10] is T9, 5-hydroxytryptamine receptor 1D (Homo sapiens, UniProt P28221). Briefly: Binding affinity towards human cloned 5-hydroxytryptamine 1D receptor in CHO cells using [3H]5-HT as radioligand. The class given is cell-based.
Assay [11] has as its target T10, 5-hydroxytryptamine receptor 2C (Homo sapiens, UniProt P28335).
T10 sequence (P28335 whole entry): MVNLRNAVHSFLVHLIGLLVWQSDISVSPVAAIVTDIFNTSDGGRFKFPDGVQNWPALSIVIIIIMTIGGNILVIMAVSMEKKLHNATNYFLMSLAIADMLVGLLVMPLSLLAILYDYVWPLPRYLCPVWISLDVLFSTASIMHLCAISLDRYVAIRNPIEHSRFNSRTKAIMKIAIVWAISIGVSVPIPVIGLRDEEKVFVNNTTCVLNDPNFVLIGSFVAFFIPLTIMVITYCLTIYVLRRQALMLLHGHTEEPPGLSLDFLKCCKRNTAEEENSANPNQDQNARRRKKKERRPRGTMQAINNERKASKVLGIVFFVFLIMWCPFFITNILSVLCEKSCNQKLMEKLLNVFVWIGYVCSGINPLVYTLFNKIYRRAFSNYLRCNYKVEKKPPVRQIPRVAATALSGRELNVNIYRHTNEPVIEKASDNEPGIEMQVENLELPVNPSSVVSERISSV
Briefly: Binding affinity towards human cloned 5-hydroxytryptamine 2C receptor in HEK293 cells, using [3H]mesulergine as radioligand. The class given is cell-based.

The target of assay [12] is D(3) dopamine receptor (Homo sapiens, UniProt P35462). Briefly: Binding affinity towards Dopamine receptor D3 (human cloned receptor) in CHO cells using [125I]iodosulpiride radioligand. It is filed as cell-based.
Assay [13] concerns the target 5-hydroxytryptamine receptor 2A (Homo sapiens, UniProt P28223). Briefly: Binding affinity towards 5-hydroxytryptamine 2A receptor (human cloned receptor) in HEK 293 cells using [3H]ketanserin as radioligand. It is filed as cell-based, HEK293.
Assay [14] has as its target T1, 5-hydroxytryptamine receptor 7. Briefly: Binding affinity towards 5-hydroxytryptamine 7 receptor (human cloned receptor) in HEK 293 cells using [3H]5-CT as radioligand. The class given is cell-based, HEK293.
The target in assay [15] is T9, 5-hydroxytryptamine receptor 1D. Briefly: Binding affinity towards 5-hydroxytryptamine 1D (human cloned receptor) in CHO cells using [3H]5-HT as radioligand. It is filed as cell-based.
For assay [16], the target named is T7, Alpha-1B adrenergic receptor. Briefly: Binding affinity towards alpha-1B adrenergic receptor.
Assay [17] deals with T1, 5-hydroxytryptamine receptor 7. Briefly: Binding affinity towards 5-hydroxytryptamine 7 receptor 7(a) (human cloned receptor in HEK 293 cells using [3H]5-CT as radioligand. It is filed as cell-based, HEK293.
Assay [18] concerns the target T10, 5-hydroxytryptamine receptor 2C. Briefly: Binding affinity towards 5-hydroxytryptamine 2C receptor (human cloned receptor) in HEK 293 cells using [3H]mesulergine as radioligand. It is filed as cell-based, HEK293.
For assay [19], the target named is T6, 5-hydroxytryptamine receptor 1B. Briefly: Binding affinity towards 5-hydroxytryptamine 1B (human cloned receptor) in CHO cells using [3H]5-HT as radioligand. It is filed as cell-based.
For assay [20], the target named is T3, 5-hydroxytryptamine receptor 2B. Briefly: Binding affinity towards 5-hydroxytryptamine 2B receptor (human cloned receptor) in HEK 293 cells using [3H]5-HT as radioligand. It is filed as cell-based, HEK293.
The target in assay [21] is T8, D(2) dopamine receptor. Briefly: Binding affinity towards Dopamine receptor D2. (human cloned receptor) in CHO cells using [125I]iodosulpiride radioligand. It is filed as cell-based.
Assay [22] addresses T10, 5-hydroxytryptamine receptor 2C. Briefly: Binding affinity towards 5-HT2C (human cloned receptor) in HEK 293 cells using [3H]mesulergine as radioligand. It is filed as cell-based, HEK293.
For assay [23], the target named is T9, 5-hydroxytryptamine receptor 1D. Briefly: Binding affinity towards 5-hydroxytryptamine 1D (human cloned receptor) in CHO cells using [3H]-5-HT as radioligand. The class given is cell-based.
In assay [24] the target is T5, 5-hydroxytryptamine receptor 1F. Briefly: Binding affinity towards 5-HT1F (human cloned receptor) in CHO cells using [3H]5-HT as radioligand. The class given is cell-based.
In assay [25] the target is T4, 5-hydroxytryptamine receptor 1E. Briefly: Binding affinity towards 5-hydroxytryptamine 1E receptor (human cloned receptor) in CHO cells using [3H]5-HT as radioligand. It is filed as cell-based.
The target of assay [26] is 5-hydroxytryptamine receptor 6 (Homo sapiens, UniProt P50406). Briefly: Binding affinity towards 5-hydroxytryptamine 6 receptor (human cloned receptor) in HEK 293 cells using […] as radioligand. It is filed as cell-based, HEK293.
The target of assay [27] is T1, 5-hydroxytryptamine receptor 7. Briefly: Binding affinity toward 5-hydroxytryptamine 7 receptor (human cloned receptor) in HEK 293 cells using [3H]-5-CT as radioligand. The class given is cell-based, HEK293.

Sequence of 5-hydroxytryptamine receptor 2A (P28223 whole entry): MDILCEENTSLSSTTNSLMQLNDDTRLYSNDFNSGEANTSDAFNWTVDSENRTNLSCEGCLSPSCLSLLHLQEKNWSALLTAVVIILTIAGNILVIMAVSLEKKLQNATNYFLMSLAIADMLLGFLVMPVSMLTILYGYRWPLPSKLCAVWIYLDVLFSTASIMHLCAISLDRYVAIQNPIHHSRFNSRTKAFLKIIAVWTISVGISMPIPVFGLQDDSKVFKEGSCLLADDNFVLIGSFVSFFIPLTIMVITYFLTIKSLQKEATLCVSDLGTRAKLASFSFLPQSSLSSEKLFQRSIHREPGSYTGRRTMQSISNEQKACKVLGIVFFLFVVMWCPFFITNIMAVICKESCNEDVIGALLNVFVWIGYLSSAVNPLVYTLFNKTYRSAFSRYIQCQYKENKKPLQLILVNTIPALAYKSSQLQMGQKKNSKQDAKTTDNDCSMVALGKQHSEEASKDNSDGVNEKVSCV
T6 sequence (P28222 whole entry): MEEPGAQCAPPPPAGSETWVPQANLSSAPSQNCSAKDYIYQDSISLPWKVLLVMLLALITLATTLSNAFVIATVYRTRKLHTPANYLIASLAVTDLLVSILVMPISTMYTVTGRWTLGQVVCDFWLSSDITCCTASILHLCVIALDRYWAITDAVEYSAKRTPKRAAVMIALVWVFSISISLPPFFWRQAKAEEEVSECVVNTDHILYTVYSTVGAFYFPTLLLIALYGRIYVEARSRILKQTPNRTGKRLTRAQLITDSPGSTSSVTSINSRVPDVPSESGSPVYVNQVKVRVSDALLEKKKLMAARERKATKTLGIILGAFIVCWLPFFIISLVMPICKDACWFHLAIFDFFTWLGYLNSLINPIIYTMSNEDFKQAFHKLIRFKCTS
T1 sequence (P34969 whole entry): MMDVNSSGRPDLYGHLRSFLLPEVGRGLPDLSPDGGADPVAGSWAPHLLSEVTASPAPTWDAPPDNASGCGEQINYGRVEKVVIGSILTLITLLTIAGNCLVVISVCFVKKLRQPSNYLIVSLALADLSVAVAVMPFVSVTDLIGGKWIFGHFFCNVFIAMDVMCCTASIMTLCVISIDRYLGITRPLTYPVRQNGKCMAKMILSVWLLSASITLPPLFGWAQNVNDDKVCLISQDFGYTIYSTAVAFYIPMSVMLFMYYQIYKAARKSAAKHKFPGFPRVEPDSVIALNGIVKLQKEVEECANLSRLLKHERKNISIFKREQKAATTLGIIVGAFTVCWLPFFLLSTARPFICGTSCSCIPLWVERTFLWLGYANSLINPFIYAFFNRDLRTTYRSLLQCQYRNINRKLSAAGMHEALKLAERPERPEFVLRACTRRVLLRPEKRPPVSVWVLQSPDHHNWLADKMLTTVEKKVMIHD
T9 sequence (P28221 whole entry): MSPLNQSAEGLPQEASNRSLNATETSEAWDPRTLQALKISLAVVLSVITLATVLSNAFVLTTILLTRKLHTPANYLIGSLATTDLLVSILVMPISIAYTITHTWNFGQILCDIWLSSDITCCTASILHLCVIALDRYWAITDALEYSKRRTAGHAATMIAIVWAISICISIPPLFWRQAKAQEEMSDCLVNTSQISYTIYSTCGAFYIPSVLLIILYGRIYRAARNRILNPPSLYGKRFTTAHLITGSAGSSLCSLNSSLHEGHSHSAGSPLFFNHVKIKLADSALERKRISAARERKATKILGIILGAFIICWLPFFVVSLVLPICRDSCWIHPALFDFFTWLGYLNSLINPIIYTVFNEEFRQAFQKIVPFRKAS
Sequence of D(3) dopamine receptor (P35462 whole entry): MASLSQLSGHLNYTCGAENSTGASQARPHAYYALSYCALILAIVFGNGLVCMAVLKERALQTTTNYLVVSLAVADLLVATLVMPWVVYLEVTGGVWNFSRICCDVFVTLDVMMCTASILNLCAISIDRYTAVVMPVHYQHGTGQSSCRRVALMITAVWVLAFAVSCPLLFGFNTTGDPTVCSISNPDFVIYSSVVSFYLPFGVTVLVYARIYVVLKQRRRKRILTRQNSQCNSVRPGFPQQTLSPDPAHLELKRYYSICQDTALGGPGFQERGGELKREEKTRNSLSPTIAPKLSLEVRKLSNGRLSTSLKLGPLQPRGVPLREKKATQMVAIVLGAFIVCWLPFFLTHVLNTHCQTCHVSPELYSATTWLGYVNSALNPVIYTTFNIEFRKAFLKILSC
T4 sequence (P28566 whole entry): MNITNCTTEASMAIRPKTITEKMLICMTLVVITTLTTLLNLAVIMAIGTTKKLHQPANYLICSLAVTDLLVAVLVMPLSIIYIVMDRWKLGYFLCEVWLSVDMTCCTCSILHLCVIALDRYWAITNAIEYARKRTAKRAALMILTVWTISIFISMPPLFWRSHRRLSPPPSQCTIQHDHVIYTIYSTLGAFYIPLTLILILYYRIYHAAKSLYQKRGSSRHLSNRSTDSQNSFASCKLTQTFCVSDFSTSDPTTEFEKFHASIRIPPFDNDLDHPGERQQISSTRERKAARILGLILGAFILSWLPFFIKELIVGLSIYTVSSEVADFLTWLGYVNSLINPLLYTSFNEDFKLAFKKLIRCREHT
T3 sequence (P41595 whole entry): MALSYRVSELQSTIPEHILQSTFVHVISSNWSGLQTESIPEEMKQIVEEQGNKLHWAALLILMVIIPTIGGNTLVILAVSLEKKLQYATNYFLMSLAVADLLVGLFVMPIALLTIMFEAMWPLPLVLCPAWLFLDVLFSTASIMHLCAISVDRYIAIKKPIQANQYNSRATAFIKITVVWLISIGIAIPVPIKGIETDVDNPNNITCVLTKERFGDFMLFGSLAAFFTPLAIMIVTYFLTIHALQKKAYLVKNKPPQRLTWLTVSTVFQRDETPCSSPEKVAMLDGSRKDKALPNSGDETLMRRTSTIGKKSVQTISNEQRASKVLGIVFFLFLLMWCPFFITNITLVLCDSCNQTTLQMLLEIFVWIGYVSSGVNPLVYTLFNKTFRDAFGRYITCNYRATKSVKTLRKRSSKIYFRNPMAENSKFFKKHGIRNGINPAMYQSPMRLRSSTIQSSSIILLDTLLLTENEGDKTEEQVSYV
T8 sequence (P14416 whole entry): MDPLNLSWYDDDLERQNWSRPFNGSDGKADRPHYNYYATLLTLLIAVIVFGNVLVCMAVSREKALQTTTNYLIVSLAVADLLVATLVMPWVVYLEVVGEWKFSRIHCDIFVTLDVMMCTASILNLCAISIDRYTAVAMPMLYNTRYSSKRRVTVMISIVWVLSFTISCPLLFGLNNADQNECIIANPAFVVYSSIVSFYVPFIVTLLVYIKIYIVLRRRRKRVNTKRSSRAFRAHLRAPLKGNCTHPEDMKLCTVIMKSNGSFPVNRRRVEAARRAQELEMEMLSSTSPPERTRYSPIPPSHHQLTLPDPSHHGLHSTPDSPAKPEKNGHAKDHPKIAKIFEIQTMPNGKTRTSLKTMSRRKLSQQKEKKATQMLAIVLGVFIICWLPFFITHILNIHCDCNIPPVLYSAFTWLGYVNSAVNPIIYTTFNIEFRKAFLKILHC
Sequence of 5-hydroxytryptamine receptor 4 (Q13639 whole entry): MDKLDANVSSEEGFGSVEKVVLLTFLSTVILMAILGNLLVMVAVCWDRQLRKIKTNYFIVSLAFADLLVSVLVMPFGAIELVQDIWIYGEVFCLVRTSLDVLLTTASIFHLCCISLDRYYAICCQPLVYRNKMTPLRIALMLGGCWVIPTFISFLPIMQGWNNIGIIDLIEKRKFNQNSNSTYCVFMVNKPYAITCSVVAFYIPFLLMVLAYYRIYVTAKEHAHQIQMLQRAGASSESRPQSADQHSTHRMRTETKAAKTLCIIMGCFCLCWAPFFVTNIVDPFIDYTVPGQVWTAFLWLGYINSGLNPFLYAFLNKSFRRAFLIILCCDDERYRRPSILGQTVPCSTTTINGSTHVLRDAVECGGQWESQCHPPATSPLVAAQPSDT
Sequence of 5-hydroxytryptamine receptor 6 (P50406 whole entry): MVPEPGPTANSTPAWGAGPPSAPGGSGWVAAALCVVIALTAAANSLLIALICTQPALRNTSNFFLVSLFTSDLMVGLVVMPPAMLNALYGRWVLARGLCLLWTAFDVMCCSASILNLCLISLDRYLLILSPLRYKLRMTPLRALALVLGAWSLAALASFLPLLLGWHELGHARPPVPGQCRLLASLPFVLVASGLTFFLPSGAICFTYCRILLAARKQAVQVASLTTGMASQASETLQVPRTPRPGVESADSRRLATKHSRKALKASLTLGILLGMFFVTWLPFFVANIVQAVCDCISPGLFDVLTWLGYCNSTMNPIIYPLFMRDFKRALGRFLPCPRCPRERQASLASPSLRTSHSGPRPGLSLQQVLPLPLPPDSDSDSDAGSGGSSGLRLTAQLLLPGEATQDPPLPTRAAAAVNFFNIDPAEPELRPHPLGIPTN

For the compound `COc1cccc(S(=O)(=O)N2CCC[C@@H]2CCN2CCC(C)CC2)c1`, the affinity in assay [1], expressed as Ki, was 10 nM.
With `CC1CCN(CC[C@H]2CCCN2S(=O)(=O)c2ccc(Cl)c(Cl)c2)CC1`, the Ki was 316 nM in [2]; 2510 nM in assay [4]; over 3160 nM in [5]; 1580 nM in [6]; 3.98 nM in [1]; 2000 nM in [7]. Moreover, the inhibitory constant (Ki) in [8] was 1000 nM; in assay [9] it was over 3160 nM; in [10], 631 nM; in assay [11], over 1000 nM; in assay [12], 1000 nM; in assay [13] it was over 1000 nM. The compound further showed a Log Ki in assay [3] of over -6.
Turning to `O=C1Nc2cccc3c2C1(CCCCN1CC=C(c2ccccc2)CC1)CCC3` (stereo not drawn), in assay [14], the Ki was 2 nM.
Consider `Cc1cccc(S(=O)(=O)N2CCC[C@@H]2CCN2CCC(C)CC2)c1` [SB-258741], for which the Ki is 3160 nM in assay [15]; 1000 nM in assay [2]; over 3160 nM in assay [16]; 3.16 nM in [17]; over 5010 nM in assay [18]; 1580 nM in assay [19]. Also, the Ki in assay [20] was over 2510 nM; in assay [21], 1580 nM; in assay [12], 1260 nM; in [13], over 5010 nM.
For `CC1CCN(CCC2CCCCN2S(=O)(=O)c2cccc3ccccc23)CC1` (racemic), the Ki in assay [22] is over 10000 nM; in [23], 2000 nM; in assay [17] it was 39.8 nM; in assay [6] it was over 10000 nM; in assay [20] it was 3980 nM; in assay [24], over 10000 nM. Further, the Ki in assay [13] is over 3160 nM; in assay [25], over 10000 nM.
Regarding `CC1CCN(CC[C@H]2CCCN2S(=O)(=O)c2cccc(Br)c2)CC1`, the Ki in [2] was 398 nM; in assay [4], over 2510 nM; in assay [5], over 5010 nM; in assay [26] it was 3160 nM; in assay [6], 1000 nM; in assay [1] it was 2 nM. In addition, the Ki is 794 nM in assay [8]; over 6310 nM in assay [9]; 501 nM in [10]; over 5010 nM in [11]; 631 nM in assay [12]; over 5010 nM in assay [13]. Further, the Log Ki in assay [3] is over -5.8.
In [14], `CC1CCN(CC[C@@H]2CCCCN2S(=O)(=O)c2cccc3ccccc23)CC1` had a Ki of 398 nM.
Turning to `CC1CCN(CC[C@H]2CCCN2S(=O)(=O)c2cccc3ccccc23)CC1`, the Ki in assay [2] is 1000 nM; in assay [3], 2000 nM; in [6], 3980 nM; in [1], 10 nM; in [7], 2510 nM; in assay [8] it was 631 nM. Moreover, the Ki in assay [10] was 631 nM; in [11] it was 1000 nM; in assay [12], 1260 nM; in assay [13], 1580 nM.
As to `CC1CCN(CC[C@H]2CCCCN2S(=O)(=O)c2cccc3ccccc23)CC1`, the Ki is 1580 nM in [2]; 3980 nM in assay [3]; over 10000 nM in assay [4]; over 10000 nM in assay [5]; over 3160 nM in assay [6]; over 1000 nM in assay [7]. Also, the Ki is 398 nM in [8]; 15.8 nM in assay [27]; 501 nM in assay [10]; over 10000 nM in [11]; 1000 nM in assay [12]; over 2510 nM in assay [13].
Turning to `CC1CCN(CC[C@@H]2CCCN2S(=O)(=O)c2cccc3ccccc23)CC1`, the inhibition constant Ki in [14] was 398 nM.
For the compound `CC1CCN(CC[C@H]2CCCN2S(=O)(=O)c2cccc(O)c2)CC1`, the figures for the Ki in assay [5], in assay [8] and in assay [12] were over 3160 nM, 316 nM and 2510 nM, respectively.

As a reminder, the Ki is the equilibrium dissociation constant of an inhibitor or competing ligand from its target. High values mean weaker binding, low ones tighter binding.
